This is an account of results in patent publication US12194040B2, “FAK inhibitor and drug combination thereof” (HINOVA PHARMACEUTICALS INC., priority 2018, dated 2025).

One may read the IC50 as the concentration at which inhibition is half-maximal. A low value points to greater potency.

Data set [1] can be described thus: Pharmacokinetic test in rats (PO, 10 mpk). The data set is classed as in vivo. To be noted: male SD rats, PO (gavage), plasma. Here is the method: An appropriate amount of test drug (10 mg) was accurately weighed, and 0.25 ml of N,N-dimethylacetamide (DMA) was first added to dissolve it, then 0.5% sodium carboxymethyl cellulose (CMC-Na) was slowly added to 5 ml. The mixture was sonicated, vortexed, and mixed well. 0.2 ml of the final solution prepared above was taken out and stored at −20° C. for the concentration determination.
After fasted overnight (free drinking water), three healthy adult male SD rats (180-250 g, purchased from Chengdu Dossy Experimental Animal Co., Ltd.) were administered by gavaging with a volume of 5 ml/kg; Prior to administration, as well as 0.5 h, 1 h, 2 h, 4 h, 6 h, 8 h, 12 h, 24 h after administration, 0.1 ml of blood was collected from the retroorbital venous plexus, centrifuged at 4° C. for 5 min to separate the plasma, and stored at −20° C. for testing. Then, LC/MS/MS method was used to determine the concentration of the test compound in the plasma.

For a further data set, the system named is MC38 tumor model. Nature of the data set: Pharmacodynamic experiment on MC38 tumor animal model. To be noted: MC38, group 4: compound 44 50 mg/kg p.o. QD × 21; day 18. It counts as in vivo, C57BL/6 mice. Here is the method:
Cell culture: MC-38 cells are cultured in DMEM medium containing 10% fetal bovine serum (FBS). MC-38 cells in logarithmic growth phase were collected, and resuspended in HBSS to a concentration suitable for subcutaneous tumor inoculation in C57BL/6 mice.
Experimental animals: C57BL/6 mice, female, 6-8 weeks old, weighing about 18-20 g, 96 mice, purchased from Beijing Vital River Experimental Animal Technology Co., Ltd.
Tumor cell inoculation: Tumor cells in logarithmic growth phase were collected, and the cell concentration was adjusted to 5×10^6/mL with HBSS, then 0.1 mL was subcutaneously inoculated on the right side of each mouse near the back, that is, 5×10^5/mouse. Then, the tumor volume was observed and measured. When the average tumor volume of the mice grew to 50-100 mm^3, the tumor-bearing mice were randomly grouped according to the tumor volume and administered. The detailed information was shown in Table 3, and the day of grouping and administration was defined as day 0.
Calculation of tumor volume: The mice were sacrificed on the 18th day, the tumor was taken out, the tumor volume was measured, and the tumor inhibition rate of each group was calculated.

The test system of the next data set is PAN-02 tumor model. Nature of the data set: Pharmacodynamic experiment on PAN02 tumor animal model. The data set is classed as in vivo, C57BL/6 mice. To be noted: PAN-02, group 4: compound 44 25 mg/kg i.g. BID; 33 days. From the text:
The PAN-02 cells in the logarithmic growth phase were collected, washed twice with PBS, and then resuspended in pre-cooled PBS for inoculation. The experimental animals were C57BL/6 mice, females, purchased from Beijing Vital River Experimental Animal Technology Co., Ltd. C57BL/6 mice were adapted to the laboratory environment for 3 days. PAN-02 cells were subcutaneously inoculated into the right ribs, and the amount of cells inoculated was 1×10^6/mouse. When the tumor grew to about 100 mm^3, they will be screened and randomly grouped. Each group included 8 mice. According to Table 4, mice were grouped and administrated as the dosing regimen. The day of grouping and administration was defined as day 1, and the administration period was 33 days.

The target of another data set is FAK enzyme (Homo sapiens, UniProt Q05397). Nature of the data set: Inhibitory activity on FAK enzyme (HTRF, Sa-XL665 / TK antibody-Eu3+). The data set is classed as biochemical.
FAK enzyme, sequence (Q05397 whole entry, species assumed): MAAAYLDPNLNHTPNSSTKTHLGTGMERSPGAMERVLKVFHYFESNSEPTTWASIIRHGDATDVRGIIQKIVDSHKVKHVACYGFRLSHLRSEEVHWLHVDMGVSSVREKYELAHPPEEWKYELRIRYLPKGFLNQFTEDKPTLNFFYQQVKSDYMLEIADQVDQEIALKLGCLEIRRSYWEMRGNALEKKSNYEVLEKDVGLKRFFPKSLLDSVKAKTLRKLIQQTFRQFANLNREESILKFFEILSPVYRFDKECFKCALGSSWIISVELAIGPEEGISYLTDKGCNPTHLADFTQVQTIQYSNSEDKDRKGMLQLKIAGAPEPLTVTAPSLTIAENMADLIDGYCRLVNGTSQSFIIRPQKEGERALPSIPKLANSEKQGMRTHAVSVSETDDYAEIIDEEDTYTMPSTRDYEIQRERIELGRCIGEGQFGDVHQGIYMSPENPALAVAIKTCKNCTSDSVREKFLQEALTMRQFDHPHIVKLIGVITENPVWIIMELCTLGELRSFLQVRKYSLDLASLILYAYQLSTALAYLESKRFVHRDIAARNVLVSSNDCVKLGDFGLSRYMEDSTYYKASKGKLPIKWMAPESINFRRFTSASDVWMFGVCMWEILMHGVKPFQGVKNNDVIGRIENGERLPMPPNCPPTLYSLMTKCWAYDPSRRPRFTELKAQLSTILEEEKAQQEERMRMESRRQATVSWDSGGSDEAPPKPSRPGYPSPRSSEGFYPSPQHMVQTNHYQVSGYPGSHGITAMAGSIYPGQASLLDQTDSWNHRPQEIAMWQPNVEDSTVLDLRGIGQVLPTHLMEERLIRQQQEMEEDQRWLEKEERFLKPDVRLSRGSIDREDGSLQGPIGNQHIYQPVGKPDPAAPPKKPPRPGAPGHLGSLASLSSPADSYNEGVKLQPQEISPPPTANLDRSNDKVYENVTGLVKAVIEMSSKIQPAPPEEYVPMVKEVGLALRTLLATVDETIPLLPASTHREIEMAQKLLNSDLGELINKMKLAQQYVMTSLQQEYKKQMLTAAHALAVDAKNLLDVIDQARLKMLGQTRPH

Protocol for FAK enzyme: By referring to literature methods (Cancer Res. 2008, 68, 1935), the experiment of inhibitory activity on FAX enzyme was carried out. The details are as follows: the test compound was diluted to 1000 nM, and then subjected to 1:3 serial dilution with DMSO. 0.1 L of the solution was transferred into a 384-well plate, and 2 replicate wells were set up for each concentration. 5 µL of 2 FAK enzyme solution was added, then centrifuged at 1000 rpm for 1 min, and incubated at 25° C. for 15 min. 5 L of 2× substrate solution was added and incubate at 25° C. for 60 min. Then, 5 µL of Sa-XL665 solution and 5 μL of TK antibody-Eu3+ were added, and centrifuged at 1000 rpm for 1 min, then incubated at 25° C. for 60 min. Finally, Envision 2104 plate reader was used to read the fluorescence signal, and calculate the half inhibitory concentration IC50 of each compound on FAX enzyme.

Take `[2H]C([2H])([2H])NC(=O)c1ccc(Nc2ncc(C(F)(F)F)c(NCc3nccnc3N(C)S(C)(=O)=O)n2)cc1` [Compound 25, N-trideuteromethyl-4-((4-(((3-(N-methanesulfonamido)pyrazin-2-yl)methyl)amino)-5-(trifluoromethyl)pyrimidin-2-yl)amino)benzamide]: the “half life t1/2” value in data set [1] is recorded as 1.75 h.
Consider `[2H]C([2H])([2H])NC(=O)c1ccc(Nc2ncc(C(F)(F)F)c(NCc3nccnc3N(C([2H])([2H])[2H])S(C)(=O)=O)n2)cc1` [Compound 44, N-trideuteromethyl-4-((4-(((3-(N-trideuteromethylmethanesulfonamido)pyrazin-2-yl)methyl)amino)-5-(trifluoromethyl)pyrimidin-2-yl)amino)benzamide], for which the Tumor inhibition rate in the data set on MC38 tumor model was determined as 26.9%; in the data set with PAN-02 tumor model, 66%.
On FAK enzyme, “N-deuteromethyl-4-((4-(((3-(N-deuteromethanesulfonamido) pyrazin-2-yl)deuteromethyl)amino)-5-(trifluoromethyl)pyrimidine-2-yl)amino)benzamide [Compound 45]” showed an IC50 of 150 pM.
